Assay results published in PubChem BioAssay (NCI).
“And” between values parts separate entries of the source, which are not always exact repeats. Equal entries are not always repeated.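 Growth conditions: 96-well plates. Treatment: test compound, 48 hours, 5 concentrations. Analysis: linear interpolation between bracketing concentrations; unreached endpoints set to highest concentration. Abbreviation: GI50, concentration required for 50% inhibition of growth. TGI is the concentration that stops growth completely.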

Key:
Test in all cases: NCI anticancer screen, dose series, 48 h
[1] = tested on: HT29 colon
[2] = tested on: NCI-H522 lung
[3] = tested on: OVCAR-8 ovarian
[4] = tested on: SF-268 CNS
[5] = tested on: SNB-75 CNS
[6] = tested on: A498 renal
[7] = tested on: CAKI-1 renal
[8] = tested on: MCF7 breast
[9] = tested on: PC-3 prostate
[10] = tested on: HS 578T breast

SMILES	TGI [1]	TGI [2] [µM]	TGI [3]	TGI [4]	TGI [5]	TGI [6]	GI50 [6] [µM]	GI50 [7] [µM]	TGI [7]	GI50 [1]	TGI [8] [µM]	GI50 [2] [µM]	GI50 [3]	TGI [9] [µM]	GI50 [4]	GI50 [5] [µM]	GI50 [9] [µM]	GI50 [10] [µM]	TGI [10] [µM]	GI50 [8] [µM]
O=C(O)c1c(-c2cccc3ccccc23)sc(-c2cccc3ccccc23)c1C(=O)O	> 100 µM	> 100	> 100 µM	> 100 µM	> 100 µM	–	–	–	–	–	–	–	–	–	–	–	–	–	–	–
O=C(c1ccccc1)C(C(=O)c1ccccc1)C1(O)C(=O)c2ccccc2C1=O	> 100 µM	42.2	> 100 µM	> 100 µM	> 100 µM	> 100 µM	–	–	–	–	–	–	–	–	–	–	–	–	–	–
C[C@@H]1C[C@@H](O)[C@]2(O)O[C@@H]3C[C@@]4(C=O)[C@@H](CC[C@@H]5[C@@H]4CC[C@]4(C)[C@@H](C6=CC(=O)OC6)CC[C@]54O)C[C@H]3O[C@@H]2O1	0.0734 µM and 0.198 µM and 0.0745 µM	–	0.057 µM and 0.13 µM and 0.116 µM	0.0151 µM and 0.0247 µM and 0.0474 µM	0.0919 µM and 0.22 µM and 0.288 µM	0.115 µM and 0.0399 µM	0.00998	0.0432	0.0486 µM and 0.36 µM	0.0534 µM and 0.0141 µM	0.16	0.00751	0.0393 µM and 0.0143 µM	0.518	0.00621 µM and 0.005 µM	0.051	–	–	–	–
CCOC(=O)C(=O)Nc1nc2c(s1)C(=O)c1ccccc1C2=O	27.4 µM	29.3	47.5 µM	27.3 µM	30.2 µM	33.2 µM	–	–	33.5 µM	–	–	–	–	–	–	–	–	–	–	–
O=C(c1ccccc1)C(c1ccccc1)C1(O)C(=O)Nc2c(Cl)cc(Cl)cc21 (configuration not stated)	58 µM	34.1	32.9 µM	51.9 µM	39.7 µM	–	–	–	40.1 µM	–	–	–	–	–	–	–	–	–	–	–
CCOC(=O)[C@@]1(C)C=C2O[C@@H]3OC4(CCCCC4)O[C@@H]3C2=C2C(O)=CC=C(O)[C@]21C(=O)OC	> 68 µM	> 68	> 68 µM	> 68 µM	> 68 µM	> 68 µM	–	–	> 68 µM	–	–	–	–	–	–	–	–	–	–	–
O=C(O)CSc1n[nH]c(-c2ccc(O)cc2)n1	> 100 µM	> 100	> 100 µM	> 100 µM	> 100 µM	> 100 µM	–	–	> 100 µM	–	–	–	–	–	–	–	–	–	–	–
O=C(CNc1nncs1)NO	> 100 µM	> 100	> 100 µM	> 100 µM	> 100 µM	> 100 µM	–	–	–	–	–	–	–	–	–	–	–	–	–	–
N#CCC(=O)Nc1cccc(C(F)(F)F)c1	> 100 µM	> 100	> 100 µM	> 100 µM	> 100 µM	> 100 µM	–	–	> 100 µM	–	–	–	–	–	–	–	–	–	–	–
CC(=O)O/C=C(/C=C/OC(C)=O)C(C/C=C(\C)C#CC=C(C)C)OC(C)=O (configuration not stated)	> 100 µM	73.7	> 100 µM	> 100 µM	–	> 100 µM	–	–	> 100 µM	–	–	–	–	–	–	–	–	–	–	–
COc1ccc2cc(C(=O)/C=C/c3cc(OC)c(OC)c(OC)c3)ccc2c1	19.7 µM	–	> 50 µM	13.7 µM	39.3 µM	–	–	3.41	28.3 µM	2.72 µM	–	–	2.01 µM	> 50	5.11 µM	11.8	9.84	–	–	–
COc1cc(CCc2ccc(OCCN(C)C)cc2)cc(OC)c1OC	> 100 µM	> 100	> 100 µM	> 100 µM	> 100 µM	> 100 µM	–	–	> 100 µM	–	–	–	–	–	–	–	–	–	–	–
Cc1ccc(-[n+]2c3cc(N)c(C)cc3nc3cc(C)c(Nc4ccccc4)cc32)cc1	0.345 µM	0.788	> 100 µM	–	0.419 µM	0.438 µM	0.119	0.173	0.461 µM	0.0377 µM	–	0.249	0.103 µM	1.77	–	0.154	0.174	0.0734	0.415	–
Cc1nc2c(nc1C)C(=O)c1cc(O)ccc1C2=O	> 87.2 µM	> 100	> 100 µM	> 100 µM	> 100 µM	> 100 µM	–	–	> 100 µM	–	–	–	–	–	–	–	–	–	–	–
Cn1c(=O)nc2n(-c3ccc(Cl)cc3)c3ccc(Cl)cc3nc-2c1=O	59.2 µM	21.3	52.5 µM	19.7 µM	10.4 µM	24.6 µM	–	–	25.9 µM	–	–	–	–	–	–	–	–	–	–	–
C=C1C(=O)O[C@H]2[C@H]1CC/C(Cn1cc(CNC(=O)Cc3cn(C(=O)c4ccc(Cl)cc4)c4ccc(OC)cc34)nn1)=C\CC[C@@]1(C)O[C@@H]21	3.5 µM	–	8.3 µM	3.52 µM	4.02 µM	8.24 µM	2.51	1.49	2.89 µM	1.67 µM	–	–	2.62 µM	3.71	1.7 µM	1.54	1.89	2.61	6.78	–
COc1cc2c3c(n(C)c(=O)c2cc1OC)-c1cc2c(cc1/C3=C\CCCCCN)OCO2	> 100 µM	> 100	3.33 µM	47.9 µM	> 100 µM	39.4 µM	10.6	1.63	54.2 µM	1.17 µM	–	1.23	–	–	3.92 µM	19.5	–	11.7	46.1	–

SMILES	TGI [1]	TGI [2] [µM]	TGI [3]	TGI [4]	TGI [5]	TGI [6]	GI50 [6] [µM]	GI50 [7] [µM]	TGI [7]	GI50 [1]	TGI [8] [µM]	GI50 [2] [µM]	GI50 [3]	TGI [9] [µM]	GI50 [4]	GI50 [5] [µM]	GI50 [9] [µM]	GI50 [10] [µM]	TGI [10] [µM]	GI50 [8] [µM]
CCOc1ccccc1NC(=O)C(=O)CC(=O)c1c(C)n([O-])c2ccccc2[n+]1=O	> 100 µM	> 100	> 100 µM	> 100 µM	> 100 µM	> 100 µM	–	–	> 100 µM	–	–	–	–	–	–	–	–	–	–	–
Nn1c(-c2ccccc2)nc2ccc(Br)cc2c1=O	> 100 µM	> 100	> 100 µM	> 100 µM	> 100 µM	> 100 µM	–	–	> 100 µM	–	–	–	–	–	–	–	–	–	–	–
CC1=C(C)C(=O)c2c(cc3ccc4ccccc4n23)C1=O	> 100 µM	–	> 100 µM	> 100 µM	> 100 µM	> 100 µM	–	–	–	–	–	–	–	–	–	–	–	–	–	–
COc1nc(N(C)O)nc(N(C)O)n1	> 100 µM	> 100	> 100 µM	> 100 µM	> 100 µM	80.5 µM	7.19	0.491	17.3 µM	1.03 µM	> 100	2.53	2.48 µM	> 100	1.16 µM	10	3.1	–	–	2.07
O=C1CC(O)C=C1Nc1ccc(Cl)cc1 (configuration not stated)	> 100 µM	48.4	> 100 µM	> 100 µM	> 100 µM	32.6 µM	–	–	> 100 µM	–	–	–	–	–	–	–	–	–	–	–
COC(=O)C1CC2(CC3=C1CCCC3)OCCO2 (configuration not stated)	> 100 µM	> 100	> 100 µM	> 100 µM	> 100 µM	> 100 µM	–	–	> 100 µM	–	–	–	–	–	–	–	–	–	–	–
CC[C@H](C)N(CCN)C(=O)c1cc2ccccc2c(-c2ccccc2Cl)n1	20.5 µM	34	27.6 µM	7.81 µM	–	17.4 µM	–	–	–	–	–	–	–	–	–	–	–	–	–	–
O=C1C(=O)N(C(=O)c2ccc(Cl)c(Cl)c2)c2ccccc21	> 100 µM	–	> 100 µM	> 100 µM	> 100 µM	–	–	–	–	–	–	–	–	–	–	–	–	–	–	–
COc1ccc(Cl)cc1Nc1nc(C(F)(F)F)ccc1C(=O)N/N=C/c1c(Cl)cccc1Cl	> 100 µM	> 100	–	> 100 µM	42.3 µM	> 100 µM	12.3	9.74	> 100 µM	> 100 µM	–	13.3	–	–	5.28 µM	11.9	–	20.2	> 100	–
CCOC(=O)c1c2c(n3ccc(NC(=O)CCN4CCCC4)cc13)C(=O)c1ncccc1C2=O	3.46 µM	–	3.49 µM	2.65 µM	2.41 µM	–	–	0.181	1.55 µM	1.57 µM	–	–	1.38 µM	2.88	0.794 µM	1.05	1.31	–	–	–
Cc1cc2c(c(C#N)c1C)NC(=O)CCC2=O	> 100 µM	–	> 100 µM	–	> 100 µM	> 100 µM	–	–	> 100 µM	–	–	–	–	–	–	–	–	–	–	–
CNC(P(=O)([O-])[O-])P(=O)([O-])[O-].N.N.[Pt+2]	–	> 100	> 100 µM	> 100 µM	> 100 µM	–	–	> 100	> 100 µM	–	–	> 100	> 100 µM	–	> 100 µM	> 100	–	–	–	–
CC1=C(C(=O)Nc2c(C)cccc2C)C(c2ccc3c(c2)OCO3)C(C(=O)Nc2c(C)cccc2C)=C(C)N1	30.2 µM	31.7	44.2 µM	48.5 µM	63.1 µM	–	–	–	59 µM	–	–	–	–	–	–	–	–	–	–	–
COc1ccc(-c2nc3sc(C)cn3c2/C=C/C(=O)c2cc(OC)c(OC)c(OC)c2)cc1	> 100 µM	3.14	8.57 µM	> 100 µM	> 100 µM	–	–	5.15	> 100 µM	3.95 µM	> 100	0.88	3.23 µM	7.17	3.53 µM	4.09	2.28	–	–	3.13
Nc1ccn(CCOC(=O)c2ccccc2)c(=O)n1	> 100 µM	> 100	> 100 µM	> 100 µM	> 100 µM	> 100 µM	–	–	> 100 µM	–	–	–	–	–	–	–	–	–	–	–
COc1cc(OC)c([C@@H]2OC(=O)C3C2C(=O)O[C@H]3c2cc(OC)c(OC)cc2OC)cc1OC (some centres not stated)	> 100 µM	–	> 100 µM	–	> 100 µM	> 100 µM	–	–	> 100 µM	–	–	–	–	–	–	–	–	–	–	–
Cc1ccc(OCC(=O)N2N=C(c3ccccc3)CC2(O)c2ccccc2)cc1 (configuration not stated)	–	> 100	> 100 µM	> 100 µM	> 100 µM	–	–	–	> 100 µM	–	–	–	–	–	–	–	–	–	–	–
